Assay results published in publication PMC7344659, “Bioactivity of Spongian Diterpenoid Scaffolds from the Antarctic Sponge Dendrilla antarctica” (Marine Drugs, 2020).
pIC50: −log10 of the molar value. Where two headings read alike, the source gives them in different places.

Assays:
[1] = tested on: primary human hepatocytes; test: Cytotoxicity towards uninfected primary human hepatocytes; assay type: cell-based; settings: for inhibition at 5 µg/mL: Hepatocyte, 5 μg/mL, uninfected primary human hepatocytes, % (Standard Deviation), n = 3, read-out: Plasmodium falciparum Inhibition at 5 μg/mL Uninfected PHHs
Procedure: (§1) The full suite of Dendrilla antarctica-derived compounds, with the exception of darwinolide (1) and dendrillin D (12) owing to mass limitations, were tested against Leishmania donovani infected macrophages, liver-stage sporozoites in primary human hepatocytes, and against MRSA biofilm. Cytotoxicity was evaluated using the mammalian J774A.1 cell line in L. donovani-active compounds, while primary human hepatocytes were evaluated for malaria-active compounds.
(§2) For the Plasmodium falciparum infected liver cells, screening was conducted at a fixed concentration of 5 µg/mL for each compound, and activities representing 60% inhibition and 100% inhibition are reported in comparison with the positive control primaquine. […] Aplysulphurin (2) at ≤13 μM was also active at the highest level.
(§3) The liver-stage Plasmodium falciparum assay was conducted as previously reported.

Plasmodium falciparum [2] = test: Liver-stage Plasmodium falciparum assay in primary human hepatocytes; assay type: cell-based; settings: for inhibition at 5 µg/mL: Plasmodium falciparum, Hepatocyte, 5 μg/mL, infected primary human hepatocytes, % (Standard Deviation), n = 3, read-out: Plasmodium falciparum Inhibition at 5 μg/mL Infected PHHs; for concentration with modest activity (60% inhibition) against P. falciparum infected liver cells: 60% inhibition level
Procedure: as §1, §2, §3

J774A.1 macrophages [3] = test: J774A.1-cell cytotoxicity assay (uninfected macrophage); assay type: cell-based; settings: Mus musculus, J774.A1; cytotoxicity, uninfected J774A.1 macrophages; single point determination; read-out: Leishmania donovani IC50 Uninfected Macrophage
Procedure: as §1
(§4) The Leishmania donovani cell line infected macrophage assay and cytotoxicity screen were conducted as previously described.

MRSA biofilm = MRSA biofilm eradication assay; assay type: cell-based, methicillin-resistant Staphylococcus aureus; settings: for inhibition at 25 µg/mL / inhibition at 50 µg/mL / inhibition at 100 µg/mL: Staphylococcus aureus, MRSA; for inhibition at 50 µg/mL: 50 μg/mL; for inhibition at 100 µg/mL: 100 μg/mL
Procedure: The MRSA biofilm assay was carried out at concentrations of 100, 50, and 25 µg/mL for each compound, and activities representing 50% and 90% eradication are reported.
The MRSA biofilm assay was conducted as previously reported.

Leishmania donovani [4] = test: Leishmania donovani infected macrophage assay; assay type: cell-based; settings: for pIC50: single point determination, read-out: Leishmania donovani IC50 Infected Macrophage
Procedure: as §1
(§5) The results from the Leishmania donovani assay (Table 2) indicate activity commensurate with the positive control and current standard of care, miltefosine (2.9 µM) is observed in aplysulphurin (2, 3.1 μM), tetrahydroaplysulphurin-1 (4, 3.5 μM), dendrillin B (10, 3.5 μM), 8-ketodihydrogracilin (13, 4.5 μM), and triol 15 (4.5 μM).
as §4

J774A.1 macrophages [5] = tested on: J774A.1 macrophages; parameters: method as in PMID 32281798; settings: ref [15], cited from earlier work
Leishmania donovani [6] = tested on: Leishmania donovani; parameters: method as in PMID 32281798; settings: ref [15], cited from earlier work; for pIC50: J774A.1 macrophages, single point determination, read-out: Leishmania donovani IC50 Infected Macrophage
[7] = Leishmania donovani infected macrophage assay; assay type: cell-based; settings: mouse, J774A.1 cytotoxicity / L. donovani activity; read-out: selectivity index (SI, mammalian cytotoxicity/antiprotozoal activity)
Procedure: as §1, §5, §4

[8] = J774A.1-cell cytotoxicity assay (uninfected macrophage); assay type: cell-based; settings: mouse, J774A.1 macrophage cells (uninfected); Table 3; unit not given (μM in Table 2); read-out: J774 Cytotoxiciy
Procedure: as §1, §4

Plasmodium falciparum [9] = test: Liver-stage Plasmodium falciparum assay in primary human hepatocytes; assay type: cell-based; settings: Table 3; SI = J774 IC50/pathogen IC50
[10] = tested on: methicillin-resistant Staphylococcus aureus (MRSA) biofilm; parameters: method as in PMID 27175857; settings: ref [17]; cited from earlier work
[11] = Leishmania donovani, J774.A1, J774A.1 macrophages
[12] = Table 3, no unit printed there, same values marked as from reference in Table 2, read-out: J774 Cytotoxiciy
[13] = cytotoxicity, uninfected J774A.1 macrophages, single point determination, read-out: Leishmania donovani IC50 Uninfected Macrophage

SMILES | inhibition at 5 µg/mL [1] | inhibition at 5 µg/mL (Plasmodium falciparum [2]) | pIC50 (J774A.1 macrophages [3]) | inhibition at 25 µg/mL (MRSA biofilm; 25 μg/mL, % (Std. Dev.), n = 6) | inhibition at 50 µg/mL (MRSA biofilm; % (Std. Dev.), n = 6) | inhibition at 100 µg/mL (MRSA biofilm; % (Std. Dev.), n = 6) | pIC50 (Leishmania donovani [4]; [11]) | further results
C/C(=C1\CCCC1(C)C)[C@H]1CC[C@H]2C(=O)OC[C@H]2C1(C)C [Glaciolide (6), glaciolide] | 4.5% | 0% | < 3.77 | 20% | 20.8% | 32.2% | 5.06 | –
COC(=O)[C@H](C)c1c([C@@]2(C)CCCC(C)(C)C2)ccc2c1C(=O)OC2 [Membranolide (5), membranolide] | 0% | 59.7% | – | ~100% | 99.9% | 100% | – | pIC50 (J774A.1 macrophages [5]; [12]): 4.11; pIC50 (J774A.1 macrophages [5]; cytotoxicity, uninfected J774A.1 macrophages, single point determination, listed as membranolide (5), read-out: Leishmania donovani IC50 Uninfected Macrophage): 4.11; pIC50 (J774A.1 macrophages [5]; [13]): 4.11; MRSA Biofilm Inhibition 25 μg/mL (MRSA biofilm; 25 μg/mL, % (Std. Dev.), n = 6): 99.7 (0.1) %; Pathogen Activity, MRSA Biofilm (MRSA biofilm; Table 3, no unit printed there (58 μM)): 58; concentration achieving 90% eradication of MRSA biofilm (MRSA biofilm; lowest concentration tested, 25 μg/mL, in molar units): 58 µM; concentration achieving 90% eradication of MRSA biofilm (MRSA biofilm; tested at 100, 50 and 25 µg/mL, 90% eradication): 25 µg/mL; pIC50 (Leishmania donovani [6]; listed as 5): > 5.00; pIC50 (Leishmania donovani [6]): 5.01; selectivity ratio [7]: 8
CCCCCCCCCCCCCCCCOP(=O)([O-])OCC[N+](C)(C)C [Miltefosine, miltefosine, reference compound] | – | – | < 3.92 | – | – | – | 5.54 | –
CC(=O)O[C@@H]1OC2OC(=O)[C@H](C)C34OOC([C@@]5(C)CCCC(C)(C)C5)(CC[C@@H]1C23)O4 (stereo partly shown) [Ozonide (14), tetrahydroaplysulphurin ozonide] | 18.6% | 61.7% | 4.77 | 17.7% | 40.6% | 99.9% | 5.00 | concentration with modest activity (60% inhibition) against P. falciparum infected liver cells (Plasmodium falciparum [2]; screen at fixed 5 µg/mL): ≤ 15 µM
COc1cc(NC(C)CCCN)c2ncccc2c1 (stereo not shown) [Primaquine, primaquine, reference compound] | 0% | 97.8% | – | – | – | – | – | –
CC(=O)OC1OC2OC(=O)C(C)C3=C(C4(C)CCCC(C)(C)C4)CCC1C32 (stereo not shown) [Tetrahydroaplysulphurin-1 (4), tetrahydroaplysulphurin-1] | 3% | 66.7% | – | 35% | 31.1% | 20.8% | – | concentration with modest activity (60% inhibition) against P. falciparum infected liver cells (Plasmodium falciparum [2]; screen at fixed 5 µg/mL): ≤ 13 µM; pIC50 (J774A.1 macrophages [5]; [12]): < 3.89; pIC50 (J774A.1 macrophages [5]; [13]): < 3.89; pIC50 (Leishmania donovani [6]): 5.46; IC50 (Leishmania donovani [6]; Table 3, unit not given (μM in Table 2), read-out: Pathogen Activity, Leishmania donovani): 3.5 µM
C[C@@H](CO)c1c([C@@]2(C)CCCC(C)(C)C2)ccc(CO)c1CO [Triol (15)] | 2.2% | 81% | < 3.80 | 2.6% | 12.3% | 9.3% | 5.35 | cytotoxicity towards uninfected primary human hepatocytes (in words) ([1]; 5 µg/mL screen): no discernable cytotoxicity; Pathogen Activity, Plasmodium falciparum (Plasmodium falciparum [2]; Table 3, no unit printed there (≤16 μM)): ≤16; inhibition of the parasite cultures (Plasmodium falciparum) (Plasmodium falciparum [2]; at low micromolar concentrations): 100%; concentration with 100% inhibition against P. falciparum infected liver cells (Plasmodium falciparum [2]; screen at fixed 5 µg/mL, 100% inhibition level (highest level)): ≤ 16 µM; IC50 [8]: > 160 µM; Selectivity Index (SI), Plasmodium falciparum (Plasmodium falciparum [9]): >10; selectivity ratio [7]: > 38; selectivity index (SI, mammalian cytotoxicity/antiprotozoal activity) (Leishmania donovani [4]; J774A.1 cytotoxicity / L. donovani activity): ~40; pIC50 (Leishmania donovani [4]; J774A.1 macrophages): 5.38
CC(=O)O[C@@H]1O[C@H]2OC(=O)C3=C(C)[C@@H]([C@@]4(C)CCCC(C)(C)C4)CC[C@@H]1[C@H]32 [darwinolide (1), darwinolide] | – | – | – | – | – | – | – | potency against MRSA biofilm relative to planktonic MRSA [10]: four times more potent against the biofilm than it was against planktonic MRSA
